# Measured values as given in US12156876B2, “Formulations of influenza therapeutics” (priority 2018, dated 2024).
# Assays:
# [1] = BALB/C, mouse, in vivo
# influenza = assay: anti-influenza potency; type: cell-based
smiles,measurement,setting,value
"O=C(O)C1C2CCC(CC2)C1n1cc(F)c2cnc(-c3c[nH]c4ncc(Cl)cc34)nc21 (centres unmarked) [Compound 1, 3-(2-(5-chloro-1H-pyrrolo[2,3-b]pyridin-3-yl)-5-fluoro-7H-pyrrolo[2,3-d]pyrimidin-7-yl)bicyclo[2.2.2]octane-2-carboxylic acid]",drug level excess of the therapeutic dose (anti-influenza potency EC50),[1],at least 100 fold
same,EC50,influenza,0.1 to 3 nM
